“Also recorded” adds a separate entry of the source. No end group written: not given here.
Tests used:
α-syn = target: T1, α-syn (Homo sapiens, UniProt P37840); test: In vitro fibrillation assay (Thioflavin T fluorescence); type: biochemical; conditions: α-syn 400 μM, purified peptide at equimolar concentration, 37° C., 900 rpm
T1 construct: His6 (N); made in house; host or cells: E. coli Rossetta (DE3), pET29a based expression vector
Experimental: ThT is a fluorescent dye which is known to bind specifically to […] rich fibrils, and such binding further increases its fluorescence intensity. The fibrillation assay was carried out with α-syn in the presence and absence of above identified interacting phages.
The N-terminal His6-tagged human wild-type α-syn was expressed in E. coli Rossetta (DE3) (#70954 Novagen) using pET29a based expression vector. After IPTG induction bacterial cell pellets were harvested by centrifugation and resuspended in 10 mM Tris-HCl, pH 8.0, 1 mM EDTA, 1 mM Pierce protease inhibitor cocktail. […] Briefly, cell lysis was carried out by sonication, lysate was boiled at 95° C. for 30 minutes, followed by centrifugation at 10,000×g for 30 minutes at 4° C. […] Protein was quantitated using BCA protein estimation kit as per manufacturer's protocol (#23227 Thermo Scientific).
Thioflavin T (ThT) (4 mM) was added to 400 μM of purified α-syn with and without phages (10^11) or purified peptides at equimolar concentration in a 96 microwell plate. The plate was incubated at 37° C. with a shaking speed of 900 rpm in linear mode in a multimode plate reader (TECAN infinite M200 PRO). Fluorescence kinetics was measured after every 15 minutes with emission wavelength of 482 nm upon excitation at 442 nm. […]

[1] = tested on: Rat phaeochromocytoma (PC12) cells; test: MTT assay with PC12 cells; type: cell-based
Experimental: MTT ((3-(4,5-Dimethylthiazol-2-yl)-2,5-diphenyltetrazolium bromide)) cell toxicity experiments were performed using Rat phaeochromocytoma (PC12) neuronal-like cells to assess toxicity of α-syn and the protective effects of the Pep.2 and CycPep.2 generated in this study. MTT assay (FIG. 5) was performed with PC12 cells incubated with α-syn fibrillation end products in presence and absence of peptides. […] However, with similar concentration of α-syn, the presence of Pep.2 and CycPep.2 improved cellular viability by 30% and >99% respectively.
MTT experiments were performed using Rat phaeochromocytoma (PC12) cells to assess cytotoxic effect of α-syn. Inhibition of PC12 cell redox activity is specific and early indicator of cell death. In MTT assay, water soluble MTT dye (3-(4, 5-dimethylthiazol-2-yl)-2,5-diphenyltetrazolium bromide) (#M2003 Sigma-Aldrich) is converted to formazan, and the conversion is monitored via absorbance measurement at 570 nm. The conversion of the MTT dye to formazan is dependent of redox status of the cell and thus the change in absorbance can be used as an indicator of the cellular viability in the assay.
PC12 cells were maintained in growth media RPMI 1640 supplemented with 10% horse serum, 5% fetal bovine serum, and antibiotics penicillin and streptomycin. […] The absorbance was measured at 570 nm using a multimode plate reader (TECAN infinite M200 PRO). […]

Substance: Pep.2d: SEQ ID NO 1; truncated derivative of Pep.2 (HHHH; Sequence retrieved through Sequence logo)
- inhibition of α-syn fibrillation (ThT fluorescence) (α-syn): inhibits α-syn fibrillation; also recorded: able to reduce α-syn fibrillation comparable with Pep.2

Substance: Pep.2: SEQ ID NO 2; parent peptide identified from phage display against α-syn (Ac-SACNHHHHLHCGG; not fully specified; cysteine pairing not given here)
- α-syn associated toxicity in PC12 cells (absorbance at 570 nm) ([1]; 10 μM α-syn with peptide in equimolar ratio, 24 hours): reduced α-syn associated toxicity
- improved cellular viability in presence of α-syn ([1]; PC12 cells, α-syn fibrillation end products with peptide in equimolar ratio, 24 h, α-syn alone gives loss of viability by about 50%): 30%

Source: patent US12018096B2, “Potent peptide inhibitors of protein aggregation” (COUNCIL OF SCIENTIFIC & INDUSTRIAL RESEARCH, priority 2017, dated 2024)
